Here are results for 1 compound from PMC4169866 (Investigational New Drugs, 2014).

“Also recorded” adds a separate entry of the source.

For one series, the target named is T1, HIPK2 (Homo sapiens, UniProt Q9H2X6).
T1 construct: purchased Millipore/UBI
Briefly: Millipore (UBI) kinase panel HIPK2. Type of series: biochemical. Conditions: generated at millipore (UBI) kinase panel.

A further series concerns the target T2, TRKA (Homo sapiens, UniProt P04629).
T2 construct: purchased Millipore/UBI
The experiment in a line: Millipore (UBI) kinase panel TRKA. In kind it is biochemical. Particulars: generated at millipore (UBI) kinase panel.

For a further series, the system named is pRb (pSer780) colo-205. Briefly: Cellular assay for inhibition of p-Rb (Ser780), colo-205 (Acumen). In kind it is cell-based. Conditions: Homo sapiens, Fig. 2a, as given in discussion. The method, then: Details for the cellular assays are provided in the supplemental materials. Briefly, image-based assays (Acumen Explorer, TPP LabTech) were used for compound screening. […] After treatment, the cells were washed, fixed and stained with antibodies to detect phosphoproteins and Propidium Iodide to monitor DNA content. The plates were then analyzed on an Acumen Explorer (TTP Labtech). The IC50 and EC50 values are determined by curve fitting to a 4-parameter logistic for each output using ACTIVITY BASE™ software.
Fixed cells are blocked with 1% bovine serum albumin (BSA, Amersham cat # RPN412V) for 30 minutes. […] Image analysis is based on cellular fluorescent signals for identifying cells in different subpopulations. Assay outputs are a percentage of each identified subpopulations; percent phosphoRB positive, percent 2 N, and percent 4 N. The IC50 and EC50 values are determined by curve fitting to a 4-parameter logistic for each output using ACTIVITY BASE™.

Another series concerns U2OS cells. The experiment in a line: DNA content (cell cycle) in U2OS phenotypic assay. In kind it is cell-based, human. The protocol: U20S cells are cultured in McCoy's 5A modified media (Invitrogen), supplemented with 10% FBS and plated in 96-well, flat-bottom plates at a density of 5,000 cells/well for incubation overnight. Compounds in DMSO stock solution are diluted serially 1:3 in McCoy's 5A media and incubated with cells for 16 hours for multiplexing pCTD/DNA content readouts. Cells are fixed with Prefer (Anatech LTD, MI) for 30 minutes at room temperature and permeated with 0.1% Triton-X 100 in PBS or cold methanol (-20°C) for 15 minutes, respectively. After blocking with 1% BSA/PBS for 30 min, cells are incubated with primary antibody (CTD p-Ser2, Covance) at 1:1000 dilution in 1% BSA/PBS containing 50 ug/ml RNAse ([…], Sigma) at 4°C overnight. […] Table S1 and Figure S1.

In the next series the test system is pERK HCT116. Briefly: pERK inhibition, HCT116. Type of series: cell-based. Particulars: Homo sapiens, HCT-116; read-out: pERK inh. HCT116 IC50.
For series [1], the system named is Rb-deficient MDA-MB-468 breast cancer cells. The experiment in a line: Flow cytometry cell cycle distribution, MDA-MB-468. Type of series: cell-based, human. Conditions: MDA-MB-468, concentrations up to 2,500 nmol/L.
Method: Flow cytometry was used to determine cell cycle distribution in cell lines. Cells were cultured in growth media under subconfluent conditions and treated with indicated concentrations of compound solubilized in DMSO for 24 hours at 37°C/5% CO2. After treatment, cells were collected, washed once with 4° C PBS, and fixed with 70% ethanol/30% water at -20 °C for 30 minutes. Cells were then collected by centrifugation, washed once with PBS, and stained for 30 minutes at room temperature by the addition of 1 mL of propidium iodide/Triton X-100 staining solution (20µg/mL of propidium iodide, 200µg/mL DNase-free RNase A, 0.1%(v/v) Triton x-100). Cell cycle analysis was performed using a Cytomics™ FC500 (Coulter); data were analyzed using ModFit v3.1 software (Verity).
The conditions of series [2]: PK/PD model, colo-205 bearing mice, continuous dosing ref 37; cited from earlier work.
Details of series [3]: method as in manuscript in preparation. Conditions: ref manuscript in preparation; cited from earlier work.

T2 sequence (P04629 33-796): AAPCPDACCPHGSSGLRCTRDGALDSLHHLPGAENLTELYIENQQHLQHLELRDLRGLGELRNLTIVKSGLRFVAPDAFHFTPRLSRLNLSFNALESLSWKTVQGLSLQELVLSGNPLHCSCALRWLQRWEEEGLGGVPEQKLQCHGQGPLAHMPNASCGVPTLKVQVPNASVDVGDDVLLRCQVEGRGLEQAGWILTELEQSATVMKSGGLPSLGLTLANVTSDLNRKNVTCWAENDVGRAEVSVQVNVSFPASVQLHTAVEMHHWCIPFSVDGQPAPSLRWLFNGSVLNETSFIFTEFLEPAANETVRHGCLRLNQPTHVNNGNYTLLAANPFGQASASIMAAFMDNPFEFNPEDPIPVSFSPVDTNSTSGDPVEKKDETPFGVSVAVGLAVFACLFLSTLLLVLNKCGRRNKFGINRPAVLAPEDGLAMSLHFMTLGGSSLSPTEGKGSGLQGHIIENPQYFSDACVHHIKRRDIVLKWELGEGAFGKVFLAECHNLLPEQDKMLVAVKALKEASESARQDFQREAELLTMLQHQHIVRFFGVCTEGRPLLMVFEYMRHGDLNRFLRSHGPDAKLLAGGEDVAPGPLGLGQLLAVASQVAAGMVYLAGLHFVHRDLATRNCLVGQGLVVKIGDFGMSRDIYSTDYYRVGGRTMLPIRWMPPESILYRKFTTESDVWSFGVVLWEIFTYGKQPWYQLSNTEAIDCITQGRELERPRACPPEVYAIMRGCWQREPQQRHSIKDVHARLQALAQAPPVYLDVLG
T1 sequence (Q9H2X6 whole entry): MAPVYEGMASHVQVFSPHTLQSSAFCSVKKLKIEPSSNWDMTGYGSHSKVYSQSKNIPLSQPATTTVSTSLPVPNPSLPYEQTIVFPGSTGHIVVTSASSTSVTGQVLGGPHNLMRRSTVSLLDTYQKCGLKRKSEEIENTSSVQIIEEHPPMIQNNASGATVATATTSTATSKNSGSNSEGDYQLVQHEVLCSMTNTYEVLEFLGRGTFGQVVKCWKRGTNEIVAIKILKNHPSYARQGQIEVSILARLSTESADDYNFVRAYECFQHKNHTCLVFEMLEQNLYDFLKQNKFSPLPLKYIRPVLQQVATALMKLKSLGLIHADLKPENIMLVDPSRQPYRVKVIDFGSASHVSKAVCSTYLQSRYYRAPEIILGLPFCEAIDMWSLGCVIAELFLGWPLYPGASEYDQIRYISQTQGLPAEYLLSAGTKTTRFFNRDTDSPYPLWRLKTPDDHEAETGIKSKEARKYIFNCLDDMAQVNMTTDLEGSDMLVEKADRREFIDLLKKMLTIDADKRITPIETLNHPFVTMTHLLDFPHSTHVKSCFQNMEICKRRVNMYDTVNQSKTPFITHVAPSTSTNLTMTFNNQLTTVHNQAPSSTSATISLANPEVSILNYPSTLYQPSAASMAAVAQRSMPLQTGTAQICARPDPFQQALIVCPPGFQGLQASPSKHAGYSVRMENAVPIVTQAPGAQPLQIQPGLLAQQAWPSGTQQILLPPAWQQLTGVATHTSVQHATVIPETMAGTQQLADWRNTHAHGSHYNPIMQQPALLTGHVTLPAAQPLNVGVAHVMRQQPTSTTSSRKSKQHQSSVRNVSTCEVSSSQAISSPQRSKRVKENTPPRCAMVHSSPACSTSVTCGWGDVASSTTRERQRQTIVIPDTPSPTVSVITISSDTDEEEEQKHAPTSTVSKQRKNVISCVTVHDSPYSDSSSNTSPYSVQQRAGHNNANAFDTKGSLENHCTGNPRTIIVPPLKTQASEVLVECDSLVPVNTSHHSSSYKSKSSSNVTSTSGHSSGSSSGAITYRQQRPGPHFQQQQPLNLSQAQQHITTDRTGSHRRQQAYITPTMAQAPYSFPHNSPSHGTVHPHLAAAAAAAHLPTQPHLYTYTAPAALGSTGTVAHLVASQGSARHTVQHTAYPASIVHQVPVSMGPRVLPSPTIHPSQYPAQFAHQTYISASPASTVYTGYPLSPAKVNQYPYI

Take `CCN1CCN(Cc2ccc(Nc3ncc(F)c(-c4cc(F)c5nc(C)n(C(C)C)c5c4)n3)nc2)CC1` [LY2835219, [5-(4-Ethyl-piperazin-1-ylmethyl)-pyridin-2-yl]-[5-fluoro-4-(7-fluoro-3-isopropyl-2-methyl-3H-benzoimidazol-5-yl)-pyrimidin-2-yl]-amine]: the IC50 at HIPK2 was 31 nM; at TRKA, 1030 nM; in the series with pRb (pSer780) colo-205, approximately 100 nM; with pERK HCT116 it was more than 20 µM. Also, the 2N cell population in the series on U2OS cells (2.2 µM) was 56%; in the series on U2OS cells (6.6 µM), 44%. In addition, the S cell population in the series on U2OS cells (2.2 µM) was determined as 6%; with U2OS cells (6.6 µM), 7%. Also, the “G1 arrest in Rb-deficient cells” value in series [1] is listed as “no such effect”. Also, in series [2], the “minimum steady state trough plasma concentration required for robust efficacy” value is “approximately 200 ng/mL; also recorded: approximately 400 nM”. In addition, the “ability to cross the blood–brain barrier” value in series [3] is given as “effectively cross the blood–brain barrier”.
